Measured values reported in patent US20230348447A1, “OXAZOLIDINONE COMPOUNDS, LIPOSOME COMPOSITIONS COMPRISING OXAZOLIDINONE COMPOUNDS AND METHOD OF USE THEREOF” (priority 2020, published 2023).
In brackets after ≈: the same amount, converted by molar mass. Where two headings read alike, the source gives them in different places.

Columns and labels:
[1] = system: African green monkey kidney (Vero; ATCC # CCL81) cells; assay: In vitro cytotoxicity (PrestoBlue cell viability), Vero; assay type: cell-based
[2] = system: M. Tuberculosis Erdman or H37Rv vs VERO or HepG2 cells; assay: Selectivity Index (mammalian cell IC50 / bacterial MIC); set-up: species or system Mycobacterium tuberculosis
[3] = system: M.tb Erdman; assay: Broth microdilution MIC with Alamar blue endpoint (MABA) / OD600; assay type: cell-based, Mycobacterium tuberculosis
[4] = system: M.tb H37Rv; assay: as above; assay type: cell-based, Mycobacterium tuberculosis
[5] = system: human hepatocyte/liver (HepG2; ATCC #HB8065) cells; assay: In vitro cytotoxicity (PrestoBlue cell viability), HepG2; assay type: cell-based
[6] = Liposome loading / encapsulation efficiency (General protocol)
[7] = system: MRSA 880 NR-49120; assay: MIC against methicillin resistant Staphylococcus aureus (MRSA); details: read-out: MRSA MIC, 880 NR-49120
[8] = system: MRSA ATCC 43300; assay: as above; details: read-out: MRSA MIC, ATCC 43300
[9] = system: MRSA ATCC BAA-1556; assay: as above
[10] = system: MRSA strain MW-2 (USA 400); assay: Rabbit left-sided aortic valve endocarditis model of MRSA; assay type: in vivo, Staphylococcus aureus (in New Zealand white rabbits); details: for Kidneys, MRSA count / Liver, MRSA count / Lungs, MRSA count / Spleen, MRSA count / Vegetations, MRSA count: rabbits, DAP 2 mg/kg daily for four days alone
[11] = Chlorocebus sabaeus, Vero, 72 h; read-out: Cell viability IC50, VERO
[12] = Mycobacterium tuberculosis, ERDMAN; read-out: Mycobacterium tuberculosis MIC, Erdman
[13] = Mycobacterium tuberculosis, H37RV; read-out: Mycobacterium tuberculosis MIC, H37Rv
[14] = Homo sapiens, HepG2, 72 h; read-out: Cell viability IC50, HepG2
[15] = Chlorocebus sabaeus, Vero, 72 h, read-out: Cell viability IC50, VERO
[16] = Mycobacterium tuberculosis, ERDMAN, read-out: Mycobacterium tuberculosis MIC, Erdman
[17] = Mycobacterium tuberculosis, H37RV, read-out: Mycobacterium tuberculosis MIC, H37Rv
[18] = Homo sapiens, HepG2, 72 h, read-out: Cell viability IC50, HepG2

SMILES | IC50 [1, 11] | Selectivity Index (SI) Erd/HepG2 [2] | Selectivity Index (SI) Erd/VERO [2] | MIC [3, 12] | MIC [4, 13] | IC50 [5, 14] | further results
CN(C)CCCn1nnc(-c2ccc(-c3ccc(N4C[C@H](CO)OC4=O)cc3F)cn2)n1 [AKG-25] | 182 µg/mL (≈ 412 µM) | 9.4 | 182.0 | 1 µg/mL (≈ 2.27 µM) | 1 µg/mL (≈ 2.27 µM) | 9.4 µg/mL (≈ 21.3 µM) | –
CCN(CC)CCCNc1ccc(-c2ccc(N3C[C@H](CO)OC3=O)cc2F)cn1 [AKG-15] | 156 µg/mL (≈ 375 µM) | <4.5 | <19.5 | > 8 µg/mL | > 8 µg/mL | 35.6 µg/mL (≈ 85.5 µM) | –
CCN(CC)CCC(=O)OC[C@H]1CN(c2ccc(-c3ccc(-c4nnn(C)n4)nc3)c(F)c2)C(=O)O1 [AKG-20] | > 250 µg/mL | 30.2 | >500 | 0.5 µg/mL (≈ 1 µM) | 0.5 µg/mL (≈ 1 µM) | 15.1 µg/mL (≈ 30.3 µM) | –
CN(C)CCNc1ccc(-c2ccc(N3C[C@H](CO)OC3=O)cc2F)cn1 [AKG-12] | – | 16.9 | 22.3 | – | – | – | IC50 [1, 15]: 89.1 µg/mL (≈ 238 µM); MIC [3, 16]: 4 µg/mL (≈ 10.7 µM); MIC [4, 17]: 4 µg/mL (≈ 10.7 µM); IC50 [5, 18]: 67.6 µg/mL (≈ 181 µM)
CN(C)CCCC(=O)OC[C@H]1CN(c2ccc(-c3ccc(-c4nnn(C)n4)nc3)c(F)c2)C(=O)O1 [AKG-5] | 32.5 µg/mL (≈ 67.2 µM) | 30.8 | – | 1 µg/mL (≈ 2.07 µM) | 1 µg/mL (≈ 2.07 µM) | 30.8 µg/mL (≈ 63.7 µM) | Maximum encapsulated drug payload ([6]; 0.5 M AS, 0.5 mol% PEG): 627 g/mol PhL; loading efficiency at or near the maximum drug load ([6]; 1 N TEA-SOS, DL0 750-1500 g/mol PhL): ≥ 96.0%; maximum drug load ([6]; 1 N TEA-SOS, DL0 750-1500 g/mol PhL, no buffer): 982-1197 g/mol PhL; stability during liposome loading (HPLC) ([6]; Example 12): Degradation of AKG-5 during the liposome loading was detected; Drug loading efficiency ([6]; PEG-DSG 0.5 mol%, 1 N TEA-SOS, DL0 500 g/mol PhL): 101.3; Drug loading efficiency ([6]; PEG-DSG 0.5 mol%, […] AS, DL0 250 g/mol PhL): 98.5; Drug loading efficiency ([6]; PEG-DSG 0.5 mol%, […] AS, DL0 500 g/mol PhL): 97.7; Drug loading efficiency ([6]; PEG-DSG 5 mol%, 1 N TEA-SOS, DL0 500 g/mol PhL): 99.3
CCN(CC)CCCn1nnc(-c2ccc(-c3ccc(N4C[C@H](CO)OC4=O)cc3F)cn2)n1 [AKG-26] | 128 µg/mL (≈ 274 µM) | 4.5 | 64.3 | 2 µg/mL (≈ 4.26 µM) | 2 µg/mL (≈ 4.26 µM) | 9 µg/mL (≈ 19.2 µM) | –
Cl.Cn1nnc(-c2ccc(-c3ccc(N4C[C@H](CNC(=O)CCN)OC4=O)cc3F)cn2)n1 [AKG-17] | – | – | – | – | – | – | Cell viability IC50, VERO ([1]; 72 h): >250 µg/mL; Mycobacterium tuberculosis MIC, Erdman [3]: 2 µg/mL; Mycobacterium tuberculosis MIC, H37Rv [4]: 2 µg/mL; Cell viability IC50, HepG2 ([5]; 72 h): 37.3 µg/mL
Cl.NCCn1nnc(-c2ccc(-c3ccc(N4C[C@H](CO)OC4=O)cc3F)cn2)n1 [AKG-23] | > 250 µg/mL | 29.2 | >1000 | 0.25 µg/mL | 0.25 µg/mL | 7.3 µg/mL | –
CN(C)C[C@H]1CN(c2ccc(-c3ccc(-c4nnn(C)n4)nc3)c(F)c2)C(=O)O1 [AKG-1] | 113 µg/mL (≈ 283 µM) | <14.5 | <14.1 | > 8 µg/mL | > 8 µg/mL | 116 µg/mL (≈ 292 µM) | –
Cl.Cn1nnc(-c2ccc(-c3ccc(N4C[C@H](CNC(=O)CCN)OC4=O)cc3F)cn2)n1 [AKG-19] | > 250 µg/mL | 5.3 | >31.3 | > 8 µg/mL | > 8 µg/mL | 42.2 µg/mL | –
CCN(CC)CCNc1ccc(-c2ccc(N3C[C@H](CO)OC3=O)cc2F)cn1 [AKG-13] | 93.9 µg/mL (≈ 233 µM) | <4.0 | <11.7 | > 8 µg/mL | > 8 µg/mL | 31.8 µg/mL (≈ 79 µM) | –
CCN(CC)C[C@H]1CN(c2ccc(-c3ccc(-c4nnn(C)n4)nc3)c(F)c2)C(=O)O1 [AKG-2] | 67.9 µg/mL (≈ 160 µM) | <3.1 | <8.5 | > 8 µg/mL | > 8 µg/mL | 24.5 µg/mL (≈ 57.6 µM) | –
CN(C)CCCn1nnc(-c2ccc(-c3ccc(N4C[C@H](CN)OC4=O)cc3F)cn2)n1 [AKG-30] | – | 151.2 | 884.0 | – | – | – | IC50 [1, 15]: 110 µg/mL (≈ 251 µM); MIC [3, 16]: 0.125 µg/mL (≈ 0.284 µM); MIC [7]: > 50 µg/mL; MIC [8]: > 50 µg/mL; MIC [4, 17]: 0.125 µg/mL (≈ 0.284 µM); IC50 [5, 18]: 18.9 µg/mL (≈ 42.9 µM); MIC ([9]; read-out: MRSA MIC): > 50 µg/mL; MIC ([9]; read-out: MRSA MIC, ATCC BAA-1556): > 50 µg/mL
CN(C)CCn1nnnc1-c1ccc(-c2ccc(N3C[C@H](CO)OC3=O)cc2F)cn1 [AKG-21] | > 250 µg/mL | <19.5 | – | > 8 µg/mL | > 8 µg/mL | 156 µg/mL (≈ 366 µM) | –
CCN(CC)CCCNC[C@H]1CN(c2ccc(-c3ccc(-c4nnn(C)n4)nc3)c(F)c2)C(=O)O1 [AKG-8] | – | – | – | – | – | – | MIC [3, 16]: > 8 µg/mL; MIC [4, 17]: > 8 µg/mL
CN(C)CCC1CCN(C[C@H]2CN(c3ccc(-c4ccc(-c5nnn(C)n5)nc4)c(F)c3)C(=O)O2)CC1 [AKG-6] | 27.4 µg/mL (≈ 53.9 µM) | <1.9 | 3.4 | > 8 µg/mL | > 8 µg/mL | 15.5 µg/mL (≈ 30.5 µM) | –
CCCCCCCCCC(=O)N[C@@H](Cc1c[nH]c2ccccc12)C(=O)N[C@H](CC(N)=O)C(=O)N[C@@H](CC(=O)O)C(=O)N[C@@H]1C(=O)NCC(=O)N[C@@H](CCCN)C(=O)N[C@@H](CC(=O)O)C(=O)N[C@H](C)C(=O)N[C@@H](CC(=O)O)C(=O)NCC(=O)N[C@H](CO)C(=O)N[C@@H]([C@H](C)CC(=O)O)C(=O)N[C@@H](CC(=O)c2ccccc2N)C(=O)O[C@@H]1C [Daptomycin] | – | – | – | – | – | – | efficacy on day 6 post inoculation ([10]; DAP 2 mg/kg daily x4 alone or plus a single dose of Ls-AKG38 40 mg/kg): no significant efficacy; Kidneys, MRSA count ([10]; (relapse)): 8.11 ± 0.49 log10 cfu/gm of tissue; Liver, MRSA count ([10]; (relapse)): 7.65 ± 0.26 log10 cfu/gm of tissue; Lungs, MRSA count ([10]; (relapse)): 8.00 ± 0.66 log10 cfu/gm of tissue; Spleen, MRSA count ([10]; (relapse)): 7.91 ± 0.54 log10 cfu/gm of tissue; Vegetations, MRSA count ([10]; (relapse)): 9.18 ± 0.22 log10 cfu/gm of tissue; Kidneys, MRSA count ([10]; day 6): 6.90 ± 0.61 log10 cfu/gm of tissue; Liver, MRSA count ([10]; day 6): 6.77 ± 0.90 log10 cfu/gm of tissue; Lungs, MRSA count ([10]; day 6): 6.37 ± 0.64 log10 cfu/gm of tissue; Spleen, MRSA count ([10]; day 6): 7.43 ± 0.38 log10 cfu/gm of tissue; Vegetations, MRSA count ([10]; day 6): 8.13 ± 0.17 log10 cfu/gm of tissue
CN(C)CCCNc1ccc(-c2ccc(N3C[C@H](CO)OC3=O)cc2F)cn1 [AKG-14] | – | – | – | 8 µg/mL (≈ 20.6 µM) | 8 µg/mL (≈ 20.6 µM) | – | –
Cl.NCCCn1nnc(-c2ccc(-c3ccc(N4C[C@H](CO)OC4=O)cc3F)cn2)n1 [AKG-27] | 5.6 µg/mL | 18.0 | 11.2 | 0.5 µg/mL | 0.5 µg/mL | 9 µg/mL | –
CCN(CC)CCn1nnc(-c2ccc(-c3ccc(N4C[C@H](CO)OC4=O)cc3F)cn2)n1 [AKG-24] | 31.3 µg/mL (≈ 68.7 µM) | 11.4 | 31.3 | 1 µg/mL (≈ 2.2 µM) | 1 µg/mL (≈ 2.2 µM) | 11.4 µg/mL (≈ 25 µM) | –
COc1nc2ccc(Br)cc2cc1[C@@H](c1ccccc1)[C@@](O)(CCN(C)C)c1cccc2ccccc12 [Bedaquiline, reference compound] | – | – | – | – | – | – | MIC ([3]; Mycobacterium tuberculosis; M. tuberculosis Erdman / H37Rv, strains not separated; read-out: MIC): 0.125 µg/mL (≈ 0.225 µM)
CCN(CC)CCCn1nnc(-c2ccc(-c3ccc(N4C[C@H](CN)OC4=O)cc3F)cn2)n1 [AKG-31] | – | 26.4 | 223.0 | – | – | – | –
CCN(CC)CCNC[C@H]1CN(c2ccc(-c3ccc(-c4nnn(C)n4)nc3)c(F)c2)C(=O)O1 [AKG-9] | – | <3.5 | <17.4 | – | – | – | IC50 [1, 15]: 139 µg/mL (≈ 297 µM); MIC [3, 16]: > 8 µg/mL; MIC [4, 17]: > 8 µg/mL; IC50 [5, 18]: 28.1 µg/mL (≈ 60 µM)
CN(C)CCC1CCN(c2ccc(-c3ccc(N4C[C@H](CO)OC4=O)cc3F)cn2)CC1 [AKG-11] | 31.9 µg/mL (≈ 72.1 µM) | 10.7 | 8.0 | 4 µg/mL (≈ 9.04 µM) | 4 µg/mL (≈ 9.04 µM) | 42.8 µg/mL (≈ 96.7 µM) | –
Cl.Cn1nnc(-c2ccc(-c3ccc(N4C[C@H](CNC(=O)CCCN)OC4=O)cc3F)cn2)n1 [AKG-18] | – | – | – | – | – | – | Cell viability IC50, VERO ([1]; 72 h): >250 µg/mL; Mycobacterium tuberculosis MIC, Erdman [3]: 2 µg/mL; Mycobacterium tuberculosis MIC, H37Rv [4]: 2 µg/mL; Cell viability IC50, HepG2 ([5]; 72 h): 9.5 µg/mL
CCN(CC)CCOC[C@H]1CN(c2ccc(-c3ccc(-c4nnn(C)n4)nc3)c(F)c2)C(=O)O1 [AKG-7] | 104 µg/mL (≈ 221 µM) | <1.4 | 13.0 | > 8 µg/mL | > 8 µg/mL | 11.2 µg/mL (≈ 23.9 µM) | –
